Laboratory results published in patent publication US10390536B2, “Methods, compounds and compositions for repelling insects and/or arachnids” (National Center for Scientific Research “Demokritos”, priority 2013, dated 2019).

Assays:
[1] = test system: sand fly Lutzomyia longipalpis; assay: warm body repellence assay with sand flies; assay type: in vivo; conditions: for Median of landings: 2 minutes, control 48
Procedure: To test the effects of repellent compounds or compositions disclosed herein on other blood-feeding arthropods, a warm body repellence assay (Krober et. al. (2010). An In Vitro Assay for Testing Mosquito Repellents Employing a Warm Body and Carbon Dioxide as a Behavioral Activator. Journal of the American Mosquito Control Association 26(4): 381-386] was conducted using the sand fly Lutzomyia longipalpis (Diptera: Psychodidae), the principal vector of Leishmania (or leismaniasis) in the Americas.
[…] Fifty L. longipalpis sandflies (male:female ratio 1:1) of 3-7 days old were tested during the scotophase under conditions described for A. gambiae in Example 6. The test cages were lined with filter paper. Reduction in the number of landings by L. longipalpis sand fly females on a warm body treated with different test products compared to the control with solvent (ethanol p.a.) alone was used to evaluate repellence. Tests were conducted in complete darkness using IR LEDs to illuminate the warm body. Landings counted during 2 minutes were normalized by experimental day, cage, and number of females by a mixed linear model before testing for differences.

A. gambiae females = assay: wind tunnel spatial repellence (landings on treated netting downwind of dirty sock); assay type: in vivo, Anopheles gambiae; conditions: for inhibition of landing on treated netting (in words): 38 or 57 μg DEET/cm^2, 38 or 76 μg carvacrol/cm^2; for Mean Landings/5 minutes: control 24.6
Procedure: Carvacrol was tested in a wind tunnel (60×60×120 cm) in order to test for inhibition of the attractiveness of dirty socks, which are otherwise very attractive to the malaria mosquito A. gambiae. Experiments were conducted at 25° C. and 80% relative humidity at a wind speed of 0.5 m·s^−1 during the last 6 hours of scotophase. Dim fluorescent light (4 Lux) was provided from above (Philips TLD, 32 Watts at 36 KHz). A tube (55 mm inner diameter) was covered at its downwind end with mosquito netting which was treated with 38 or 57 μg DEET/cm^2 or 38 or 76 μg carvacrol/cm^2 or the solvent (ethanol) alone (control). Groups of 30 A. gambiae females were released from a release cage at the downwind end of the wind tunnel and their landing behaviour on the mosquito netting was recorded with a high definition video camera. The number of mosquitoes landing on the mosquito netting over 5 minutes was counted.

[2] = test system: female A. gambiae antennae; assay: GC-coupled electroantennogram (GC-EAG) recording; parameters: species or system Anopheles gambiae; conditions: compounds eluting from GC of essential oils
Source text: Electrophysiological recordings from whole mosquito antenna: Coupling EAG recordings from an A. gambiae antenna to the effluent of a high-resolution gas chromatographic (GC) column permitted the determination of the elution profiles of biologically active components of essential oils showing repellence. Recordings were made from to 4-9 day-old female mosquitoes. The head was excised at the occipital opening and placed on the reference glass electrode containing Hayes mosquito Ringer [Hayes (1953). Determination of a physiological saline for Aedes aegypti (L.). J Econ Entomol 46: 624-627] mounted in a humidified air-stream (90-98% RH; Guerin and Visser (1980). Electroantennogram Responses of the Carrot Fly, Psila rosae, to Volatile Plant Components. Physiological Entomology 5(2): 111-119] and its antenna exposed to compounds eluting from the GC column (Biessamann et al. (2010). The Anopheles gambiae odorant binding protein 1 (AgamOBP1) mediates indole recognition in the antennae of female mosquitoes. PLoS One 5(3): e9471]. The EAG response was recorded via a glass electrode filled with Kaissling sensillum lymph Ringer [Kaissling (1995). Single unit and electroantennogram recordings in insect olfactory organs. In Experimental Cell Biology of Taste and Olfaction. Current Techniques and Protocols, Spielman AlaB, J. G. (ed), 361-386. Boca Raton, Fla.: CRC Press] brought into contact with the terminal antennal segment whose tip was cut off. Only antennae showing an EAG response at least double the noise level to a 1 ml puff of air over 1 μg geranylacetone in a 5 ml stimulus syringe were used for recording EAG responses to the essential oils.
To conduct a GC-EAG analysis, about 2 μg of an essential oil was injected in 1-3 μL of dichloromethane (DCM) onto an apolar capillary column (95% dimethyl polysiloxan with 5% diphenyl polysiloxan, 15 m long, 0.25 mm i.d., 0.10 μm film thickness; BGB Analytik, Switzerland) installed in a 5300 Carlo Erba Instruments chromatograph. Hydrogen was used as carrier gas with the oven held at 40° C. for 3 minutes then heated up 25° C./min to 230° C. and held at the final temperature for 15 min. The column effluent was split (50:50) between the flame ionization detector (FID) of the chromatograph and the mosquito antennal preparation. The EAG signal was fed into an AC/DC amplifier (×100) via a high impedance preamplifier (×10), recorded on the hard disk of a PC via a 16-bit analogue-digital IDAC4 interface (Syntech, Netherlands) and monitored simultaneously with an oscilloscope (Tektronix 5103, USA). Kovats retention indices (KIs) were calculated for the EAG-active compounds present in the extracts and fractions. FIG. 1 illustrates the results obtained using the GC-EAG analysis. […]

[3] = test system: Ixodes ricinus (Ixodidae) nymphs; assay: tick repellence assay on warm glass plate; assay type: in vivo; conditions: 10 μg/cm^2; nymphs dropped off or walked down the warm glass plate; control 8
Procedure: The products were tested at a dose of 10 μg/cm^2 on Ixodes ricinus (Ixodidae) nymphs according the protocol described in Krober, T. et al. (2013). A standardised in vivo and in vitro test method for evaluating tick repellents. Pesticide Biochemistry and Physiology 107: 160-168] with the following modifications: The test products (dissolved in ethanol) were allowed to evaporate for 40 s (as in the warm body test with mosquitoes) and the warm glass plates were used up to 250 s after application of the test products for the repellence assay. Four repetitions were made with carvacrol with 3, 4, 4 and 5 nymphs, i.e. with a total of 16 I. ricinus nymphs, of which in total 75% (12) were affected in that they either dropped off or walked down the warm glass plate.
The mixture of carvacrol+cumin alcohol+butyl-cinnamate was tested in two repetitions with 6 and 7 nymphs, i.e. with a total of 13 I. ricinus nymphs, of which 100% were affected in that they either dropped off or walked down the warm glass plate. Of 12 Ixodes ricinus tested in the control (ethanol only) only one tick (8%) was affected (Table 8).

[4] = netting treated with 38 μg/cm^2

SMILES | Median of landings ([1]; 20 nmol/cm^2) | Median of landings ([1]; 200 nmol/cm^2) | inhibition of landing on treated netting (in words) (A. gambiae females) | Mean Landings/5 minutes (A. gambiae females; [4]) | Mean Landings/5 minutes (A. gambiae females; netting treated with 57 μg/cm^2 (300 nmol/cm^2)) | EAG response of antenna [2] | % affected ticks [3] | repellence of sand flies from the warm body (in words) ([1]; 20 and 200 nmol/cm^2) | Mean Landings/5 minutes (A. gambiae females; netting treated with 76 μg/cm^2 (500 nmol/cm^2))
CCN(CC)C(=O)c1cccc(C)c1 [DEET, N,N-diethyl-3-methylbenzamide, reference compound] | 6 | 5 | clearly inhibited | 0 Landings/5 minutes | 0 Landings/5 minutes |  |  |  | 
Cc1ccc(C(C)C)cc1O [carvacrol, 5-isopropyl-2-methylphenol] | 23 | 1 | clearly inhibited | 0 Landings/5 minutes |  | capable of triggering EAG responses | 75% | as effective as DEET at 20 nmol/cm^2 | 0 Landings/5 minutes
CC(C)c1ccc(CO)cc1 [cumin alcohol] |  |  |  |  |  | capable of triggering EAG responses |  |  | 
